In patent publication EP2063887B1, “NEW SMALL MOLECULE INHIBITORS OF MDM2 AND THE USES THEREOF” (priority 2006, dated 2008):
Values joined by “and” are separate entries in the source; they are usually repeats but may differ in a detail not shown here. Equal values may be shown once. Read-outs that look alike come from different tables or passages of the source.

How the values were obtained:
LNCaP (p53 wild-type) = assay: Cell growth inhibition (WST-8, 4 days), LNCaP; type: cell-based, human;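 also: LNCaP human prostate cancer cells exposed to compound for 4 days, with inhibition of cell growth as the measured effect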
Method: (§1) To test these predictions, a cell growth assay was developed using human prostate cancer LNCaP (p53 wild-type) and PC-3 (p53 null) cell lines. The toxic effects of compounds of the invention were tested.
(§2) Cells were seeded in 96-well flat bottom cell culture plates at a density of 3-4x 10^3 cells/well and incubated in the presence of compounds for 4 days.

PC-3 (p53 null) = assay: Cell growth inhibition (WST-8, 4 days), PC3; type: cell-based, human;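 also: PC-3 is a human prostate cancer line, cultured with test compound throughout the 4-day growth assay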
Method: as §1, §2

HCT116 p53WT = assay: Cell growth inhibition (WST-8), HCT116 p53WT; type: cell-based; conditions: individual determinations and mean ± SD lines;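 also: compound exposure of the cells lasted 4 days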
Method: as §2

HCT116 p53KO = assay: Cell growth inhibition (WST-8), HCT116 p53KO; type: cell-based;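 also: cells in 96-well plates exposed to compound for 4 days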
Method: as §2

MDM2 protein = MDM2 protein (Homo sapiens, UniProt Q00987); assay: MDM2 binding assay, competition with tracer F-6 (IC50 and calculated Ki); conditions: MDM2 [10 nM]; F-6 [1 nM]; individual determinations, values not in parentheses
[1] = individual determinations and mean ± SD lines, read-out: LNCaP IC50
[2] = PC3, p53 null, individual determinations and mean ± SD lines, read-out: PC3 IC50
[3] = HCT116 p53WT, read-out: HCT116 p53WT IC50
[4] = Homo sapiens, 96 h, individual determinations and mean ± SD lines, read-out: LNCaP IC50
[5] = Homo sapiens, 96 h, PC3, p53 null, individual determinations and mean ± SD lines, read-out: PC3 IC50
[6] = Homo sapiens, HCT-116, HCT116 p53WT, read-out: HCT116 p53WT IC50
[7] = HCT116 p53KO, individual determinations and mean ± SD lines, read-out: HCT116 p53KO IC50
[8] = Homo sapiens, HCT-116, HCT116 p53KO, individual determinations and mean ± SD lines, read-out: HCT116 p53KO IC50
[9] = read-out: LNCaP IC50, individual determinations and mean ± SD lines
[10] = read-out: HCT116 p53WT IC50, HCT116 p53WT
[11] = read-out: PC3 IC50, PC3, p53 null, individual determinations and mean ± SD lines
[12] = Homo sapiens, HCT-116, read-out: HCT116 p53WT IC50 (µM), HCT116 p53WT
[13] = read-out: HCT116 p53KO IC50, HCT116 p53KO, individual determinations and mean ± SD lines

Sequence of MDM2 protein (Q00987 whole entry, species assumed): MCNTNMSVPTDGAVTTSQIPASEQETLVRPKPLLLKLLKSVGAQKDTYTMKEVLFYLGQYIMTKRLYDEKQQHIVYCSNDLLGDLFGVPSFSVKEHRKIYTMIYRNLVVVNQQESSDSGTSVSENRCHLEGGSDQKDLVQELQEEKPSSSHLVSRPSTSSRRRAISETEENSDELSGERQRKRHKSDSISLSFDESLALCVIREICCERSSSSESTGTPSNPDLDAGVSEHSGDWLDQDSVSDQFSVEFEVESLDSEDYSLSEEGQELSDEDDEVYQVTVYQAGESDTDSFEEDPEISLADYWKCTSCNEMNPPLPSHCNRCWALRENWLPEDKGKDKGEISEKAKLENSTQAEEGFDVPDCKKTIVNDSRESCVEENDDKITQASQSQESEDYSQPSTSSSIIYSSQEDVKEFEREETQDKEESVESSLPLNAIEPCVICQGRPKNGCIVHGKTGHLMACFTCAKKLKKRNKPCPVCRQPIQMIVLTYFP

| Compound | IC50 (LNCaP (p53 wild-type); [1]) | IC50 (PC-3 (p53 null); [2]) | IC50 (HCT116 p53WT; [3]) | IC50 (HCT116 p53KO; [7]) | other results |
| --- | --- | --- | --- | --- | --- |
| COC(C)(C)C[C@H]1N[C@@H](C(=O)NCC[C@H](O)CO)[C@H](c2ccc(F)c(Cl)c2)[C@@]12C(=O)Nc1cc(Cl)c(F)cc12 [MI-319-7] | 1.92 µM | 34.3 µM | 7.95 µM |  |  |
| CC(C)(C)C[C@H]1N[C@@H](C(=O)NCCn2ccnc2)[C@H](c2ccc(F)c(Cl)c2)[C@@]12C(=O)Nc1cc(Cl)c(F)cc12 [MI-319-17, 6-CHLORO-4'-(3-CHLORO-4-FLUOROPHENYL)-2'-(2,2-DIMETHYL-PROPYL)-5-FLUORO-2-OXO-1,2-DIHYDRO-SPIRO[INDOLE-3,3'-PYRROLIDINE]-5'-CARBOXYLIC ACID (2-IMIDAZOL-1-YL-ETHYL)-AMIDE] | 1.55 µM and 1.51 µM | 22 µM and 23.6 µM | 3.79 µM and 3.15 µM | 22.3 µM and 25.1 µM | IC50 (LNCaP (p53 wild-type); [4]): 1.1 µM; IC50 (PC-3 (p53 null); [5]): 14 µM; IC50 (HCT116 p53WT; [6]): 2.1 µM; IC50 (HCT116 p53KO; [8]): 25.1 µM |
| CC(=O)N1[C@@H](C(=O)NCC[C@H](O)CO)[C@H](c2ccc(F)c(Cl)c2)[C@@]2(C(=O)Nc3cc(Cl)c(F)cc32)[C@H]1CC(C)(C)C [MI-319-13, 1'-ACETYL-6-CHLORO-4'-(3-CHLORO-4-FLUOROPHENYL)-2'-(2,2-DIMETHYLPROPYL)-5-FLUORO-2-OXO-1,2-DIHYDRO-SPIRO[INDOLE-3,3'-PYRROLIDINE]-5'-CARBOXYLIC ACID (3,4-DIHYDROXY-BUTYL)-AMIDE] |  |  |  |  | IC50 (LNCaP (p53 wild-type); [9]): 3.66 µM and 2.32 µM and 4.85 µM and 3.6 µM; IC50 (HCT116 p53WT; [10]): 3.23 µM and 6.37 µM and 11 µM and 6.85 µM |
| CC(C)(C)C[C@H]1N[C@@H](C(=O)NCCC2CCC(O)C2)[C@H](c2ccc(F)c(Cl)c2)[C@@]12C(=O)Nc1cc(Cl)c(F)cc12 (single isomer, unassigned) [MDM2-319-6, 6-CHLORO-4'-(3-CHLORO-4-FLUOROPHENYL)-2'-(2,2-DIMETHYL-PROPYL)-5-FLUORO-2-OXO-1,2-DIHYDRO-SPIRO[INDOLE-3,3'-PYRROLIDINE]-5'-CARBOXYLIC ACID [2-(3-HYDROXY-CYCLOPENTYL)-ETHYL)-AMIDE] |  |  |  |  | IC50 (LNCaP (p53 wild-type); [9]): 2.58 µM and 1.22 µM and 1.93 µM and 1.91 µM; IC50 (PC-3 (p53 null); Homo sapiens, 96 h, read-out: PC3 IC50 (µM), PC3, p53 null, individual determinations and mean ± SD lines): 21.4 µM; IC50 (PC-3 (p53 null); [11]): 20.8 µM and 14.2 µM and 18.7 µM; IC50 (HCT116 p53WT; [12]): 5.45 µM; IC50 (HCT116 p53WT; [10]): 7.41 µM and 5.96 µM and 6.26 µM; IC50 (HCT116 p53KO; Homo sapiens, HCT-116, read-out: HCT116 p53KO IC50 (µM), HCT116 p53KO, individual determinations and mean ± SD lines): 14.3 µM; IC50 (HCT116 p53KO; [13]): 16.1 µM and 14.6 µM and 15 µM |
| CN1CCN(C(=O)[C@@H]2N[C@H](CC(C)(C)C)[C@]3(C(=O)Nc4cc(Cl)c(F)cc43)[C@H]2c2ccc(F)c(Cl)c2)CC1 [MI-319-9] |  |  |  |  | IC50 (LNCaP (p53 wild-type); [9]): 5 µM and 2.46 µM; IC50 (HCT116 p53WT; [12]): 7.48 µM; IC50 (HCT116 p53WT; [10]): 9.2 µM and 4.63 µM and 7.1 µM; IC50 (HCT116 p53KO; [13]): 9.71 µM and 8.19 µM and 4.52 µM and 7.47 µM |
| CC(C)(C)C[C@H]1N[C@@H](C(=O)NCCc2ncc[nH]2)[C@H](c2cccc(Cl)c2)[C@@]12C(=O)Nc1cc(Cl)c(F)cc12 [MI-319-21] | 1.84 µM | 14.1 µM | 3.88 µM | 13.2 µM |  |
| CC(C)(C)C[C@H]1N[C@@H](C(=O)NCCNC(=N)N)[C@H](c2ccc(F)c(Cl)c2)[C@@]12C(=O)Nc1cc(Cl)c(F)cc12 [MI-319-20, 6-CHLORO-4'-(3-CHLORO-4-FLUOROPHENYL)-2'-(2,2-DIMETHYL-PROPYL)-5-FLUORO-2-OXO-1,2-DIHYDRO-SPIRO[INDOLE-3,3'-PYRROLIDINE]-5'-CARBOXYLIC ACID (2-GUANIDINO-ETHYL)-AMIDE] |  |  |  |  | IC50 (PC-3 (p53 null); [11]): > 30 µM and 66.1 µM; IC50 (HCT116 p53WT; [10]): > 30 µM and 93.5 µM; IC50 (HCT116 p53KO; [13]): > 100 µM |
| 6-CHLORO-4'-(3-CHLORO-4-FLUOROPHENYL)-2'-(2,2-DIMETHYL-PROPYL)-5-FLUORO-2-OXO-1'-OXY-1,2,4',5'-TETRAHYDRO-SPIRO[INDOLE-3,3'-PYRROLE]-5'-CARBOXYLIC ACID (3,4-DIHYDROXY-BUTYL)-AMIDE [MI-319-14] |  | 40.1 µM and 40.2 µM and > 30 µM | 8.01 µM and 9.27 µM and 5.74 µM and 7.67 µM | > 30 µM | IC50 (MDM2 protein): 2.04 µM and 1.66 µM |
| CC(C)(C)C[C@H]1N[C@@H](C(=O)NCC[C@H](O)CO)[C@H](c2ccc(F)c(Cl)c2)[C@@]12C(=O)Nc1cc(Cl)c(F)cc12 [MDM2-319, (2'R,3S,3"S,4'R,5'R) 6-CHLORO-4'-(3-CHLORO-4-FLUORO-PHENYL)-2'-(2,2-DIMETHYL-PROPYL)-5-FLUORO-2-OXO-1,2-DIHYDRO-SPIRO[INDOLE-3,3'-PYRROLIDINE]-5'-CARBOXYLIC ACID (3,4-DIHYDROXY-BUTYL)-AMIDE] | 0.274 µM and 0.184 µM and 0.229 µM |  | 0.717 µM and 0.615 µM and 0.247 µM and 0.52 µM |  | IC50 (HCT116 p53KO; read-out: HCT116 p53KO IC50): 11.8 µM and 12.2 µM and 14.2 µM |
| O=C(NCC[C@H](O)CO)[C@@H]1N[C@H](CC2CCCC2)[C@]2(C(=O)Nc3cc(Cl)c(F)cc32)[C@H]1c1ccc(F)c(Cl)c1 [MDM2-319-1, 6-CHLORO-4'-(3-CHLORO-4-FLUOROPHENYL)-2'-CYCLOPENTYLMETHYL-5-FLUORO-2-OXO-1,2-DIHYDRO-SPIRO[INDOLE-3,3'-PYRROLIDINE]-5'-CARBOXYLIC ACID (3,4-DIHYDROXY-BUTYL)-AMIDE] | 0.36 µM |  | 1.36 µM | 10.4 µM | IC50 (LNCaP (p53 wild-type); [4]): 0.261 µM; IC50 (HCT116 p53WT; [6]): 0.908 µM; IC50 (HCT116 p53KO; [8]): 12.7 µM |
| CC(C)(C)C[C@H]1N[C@@H](C(=O)NCCC2CCC(O)C2)[C@H](c2ccc(F)c(Cl)c2)[C@@]12C(=O)Nc1cc(Cl)c(F)cc12 (stereo partly shown) [MDM2-319-5] | 0.465 µM and 0.634 µM and 0.56 µM | 5.55 µM and 8.71 µM and 7.91 µM | 1.29 µM and 1.5 µM and 1.23 µM | 5.39 µM and 8.4 µM and 8.1 µM |  |
| O=C(NCC[C@H](O)CO)[C@@H]1N[C@H](C2CCCCC2)[C@]2(C(=O)Nc3cc(Cl)c(F)cc32)[C@H]1c1ccc(F)c(Cl)c1 [MDM2-319-4, 6-CHLORO-4'-(3-CHLORO-4-FLUOROPHENYL)-2'-CYCLOHEXYL-5-FLUORO-2-OXO-1,2-DIHYDRO-SPIRO[INDOLE-3,3'-PYRROLIDINE]-5'-CARBOXYLIC ACID (3,4-DIHYDROXY-BUTYL)-AMIDE] | 1.29 µM and 0.89 µM and 1.21 µM | 23.4 µM and 25.6 µM and 22.5 µM | 5.03 µM and 5.8 µM and 2.41 µM and 4.41 µM | 13.1 µM and 26.5 µM and 13.4 µM and 17.6 µM | IC50 (LNCaP (p53 wild-type); [4]): 1.42 µM; IC50 (PC-3 (p53 null); [5]): 18.5 µM |
| O=C(NCC[C@H](O)CO)[C@@H]1N[C@H](C2CCCC2)[C@]2(C(=O)Nc3cc(Cl)c(F)cc32)[C@H]1c1ccc(F)c(Cl)c1 [MI-319-8, 6-CHLORO-4'-(3-CHLORO-4-FLUOROPHENYL)-2'-CYCLOPENTYL-5-FLUORO-2-OXO-1,2-DIHYDRO-SPIRO[INDOLE-3,3'-PYRROLIDINE]-5'-CARBOXYLIC ACID (3,4-DIHYDROXY-BUTYL)-AMIDE] | 0.963 µM and 0.893 µM and 0.662 µM and 1.46 µM | 20.7 µM and 18.4 µM and 23.3 µM | 4.73 µM and 2.74 µM and 3.86 µM | 25.5 µM and 22.7 µM and 26.3 µM | IC50 (PC-3 (p53 null); [5]): 30.7 µM; IC50 (HCT116 p53WT; [6]): 4.11 µM; IC50 (HCT116 p53KO; [8]): 30.9 µM |
| CC(C)(C)C[C@H]1N[C@@H](C(=O)NC[C@H](O)[C@H](O)CO)[C@H](c2ccc(F)c(Cl)c2)[C@@]12C(=O)Nc1cc(Cl)c(F)cc12 [MI-319-19, 6-CHLORO-4'-(3-CHLORO-4-FLUOROPHENYL)-2'-(2,2-DIMETHYL-PROPYL)-5-FLUORO-2-OXO-1,2-DIHYDRO-SPIRO[INDOLE-3,3'-PYRROLIDINE]-5'-CARBOXYLIC ACID (2,3,4-TRIHYDROXY-BUTYL)-AMIDE] | 2.4 µM and 1.2 µM | > 30 µM and 41.6 µM | 2.68 µM and 5.98 µM and 4.6 µM | > 30 µM and 77.6 µM | IC50 (LNCaP (p53 wild-type); [4]): 1.24 µM; IC50 (PC-3 (p53 null); [5]): 30.7 µM |
